Test results taken from patent US10562909B2, “Fused quadracyclic compounds, compositions and uses thereof” (Tabomedex Biosciences, LLC, priority 2016, dated 2020).

The compounds below were run against MAPKAPK2 (Homo sapiens, UniProt P49137) (assay: MK2 Enzymatic Assay). Conditions: 0.5 nM MAPKAPK2, 3 μM ATP, 2 μM Ser/Thr4 peptide, 23° C., values given as concentration bins.
Format: biochemical
Description: Briefly, 5 μL of 2× (4 μM) 100% phosphorylation peptide was delivered into the control wells of a 384-well assay plate. 5 μL of 2× (1 nM) MAPKAPK2 and 2× peptide (4 μM) mixture in assay buffer was dispensed to remaining columns of assay plate using Eppendorf electronic multiple channel pipette. The assay plate was incubated for 20 minutes. 5 μL of 2× ATP (6 μM) in assay buffer was dispensed to each well and then the assay plate was lightly centrifuged. The assay plate was incubated for an additional 120 minutes.
5 μL of development reagent A was dispensed to all wells using Eppendorf electronic multiple channel pipette. After incubating the development reaction for 120 min, plates were read on a Perkin Elmer Envision instrument.
Percent phosphorylation was calculated using the following formula:
[formula] Where • C100%=Average Coumarin emission signal of the 100% Phos. Control • C0%=Average Coumarin emission signal of the 0% Phos. Control • F100%=Average Fluorescein emission signal of the 100% Phos. Control • F0%=Average Flurescein emission signal of the 0% Phos. Control

Sequence of MAPKAPK2 (P49137 whole entry, species assumed): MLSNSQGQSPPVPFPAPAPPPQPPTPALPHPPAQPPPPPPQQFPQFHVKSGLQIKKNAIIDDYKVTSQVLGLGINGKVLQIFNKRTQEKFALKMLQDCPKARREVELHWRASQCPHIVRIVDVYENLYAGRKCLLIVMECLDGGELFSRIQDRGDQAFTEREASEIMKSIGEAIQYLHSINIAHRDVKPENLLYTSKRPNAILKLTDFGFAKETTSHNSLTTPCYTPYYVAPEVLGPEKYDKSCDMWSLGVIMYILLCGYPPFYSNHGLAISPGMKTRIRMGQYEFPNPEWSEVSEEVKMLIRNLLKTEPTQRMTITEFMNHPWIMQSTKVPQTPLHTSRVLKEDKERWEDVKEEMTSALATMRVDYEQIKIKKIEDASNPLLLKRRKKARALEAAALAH

SMILES | IC50
CN(C)[C@H]1CN(c2ccc3c(c2)Cn2cc(-c4ccc(C#N)cc4)cc2-c2nccn2-3)C[C@@H]1O [Compound 131, 4-(7-((3S,4S)-3-(dimethylamino)-4-hydroxypyrrolidin-1-yl)-9H-benzo[e]imidazo[2,1-c]pyrrolo[1,2-a][1,4]diazepin-12-yl)benzonitrile] | < 0.05 µM
OC1CCN(C[C@H]2CCN(c3ccc4c(c3)Cn3cc(-c5ccc(F)cc5)cc3-c3nccn3-4)C2)CC1 [Compound 362, (R)-1-((1-(12-(4-fluorophenyl)-9H-benzo[e]imidazo[2,1-c]pyrrolo[1,2-a][1,4]diazepin-7-yl)pyrrolidin-3-yl)methyl)piperidin-4-ol] | < 0.05 µM
CN(C)C[C@H]1CCN(c2ccc3c(c2)Cn2cc(-c4ccc(F)cc4)cc2-c2nnnn2-3)C1 [Compound 394, (R)-1-(1-(12-(4-fluorophenyl)-9H-benzo[e]pyrrolo[1,2-a]tetrazolo[5,1-c][1,4]diazepin-7-yl)pyrrolidin-3-yl)-N,N-dimethylmethanamine] | 0.05 to 0.1 µM
CN(C)C[C@@H]1CN(c2ccc3c(n2)Cn2cc(-c4ccc(F)cc4)cc2-c2nccn2-3)C[C@@H]1O [Compound 430, (3R,4R)-4-((dimethylamino)methyl)-1-(12-(4-fluorophenyl)-9H-imidazo[2,1-c]pyrido[3,2-e]pyrrolo[1,2-a][1,4]diazepin-7-yl)pyrrolidin-3-ol] | < 0.05 µM
CN(C)C[C@@H]1CN(c2ccc3c(c2)Cn2cc(-c4ccc(C#N)cc4)cc2-c2nccn2-3)C[C@H]1O [Compound 138, 4-(7-((3R,4S)-3-((dimethylamino)methyl)-4-hydroxypyrrolidin-1-yl)-9H-benzo[e]imidazo[2,1-c]pyrrolo[1,2-a][1,4]diazepin-12-yl)benzonitrile] | < 0.05 µM
CN(C)C[C@H]1CCN(c2ccc3c(c2)Cn2cc(-c4ccc(F)cc4)cc2-c2nccn2-3)C1 [Compound 346, (R)-1-(1-(12-(4-fluorophenyl)-9H-benzo[e]imidazo[2,1-c]pyrrolo[1,2-a][1,4]diazepin-7-yl)pyrrolidin-3-yl)-N,N-dimethylmethanamine] | < 0.05 µM
NC[C@@H]1CN(c2ccc3c(c2)Cn2cc(-c4ccc(F)cc4)cc2-c2nccn2-3)C[C@H]1O [Compound 366, (3S,4R)-4-(aminomethyl)-1-(12-(4-fluorophenyl)-9H-benzo[e]imidazo[2,1-c]pyrrolo[1,2-a] [1,4]diazepin-7-yl)pyrrolidin-3-ol] | < 0.05 µM
CN(C)C[C@@H]1CN(c2ccc3c(c2)Cn2cc(-c4ccc(C#N)cc4)cc2-c2nncn2-3)C[C@H]1O [Compound 108, 4-(7-((3R,4S)-3-((dimethylamino)methyl)-4-hydroxypyrrolidin-1-yl)-9H-benzo[e]pyrrolo[1,2-a][1,2,4]triazolo[3,4-c][1,4]diazepin-12-yl)benzonitrile] | < 0.05 µM
CN(C)C[C@@H]1CN(c2ccc3c(c2)Cn2cc(-c4ccc(F)cc4)cc2-c2nccn2-3)C[C@@H]1F [Compound 475, 1-((3R,4R)-4-fluoro-1-(12-(4-fluorophenyl)-9H-benzo[e]imidazo[2,1-c]pyrrolo[1,2-a][1,4]diazepin-7-yl)pyrrolidin-3-yl)-N,N-dimethylmethanamine] | < 0.05 µM
CCN1CC2(CCN(c3ccc4c(c3)Cn3cc(-c5ccc(F)cc5)cc3-c3nccn3-4)C2)C1 [Compound 367, 7-(2-ethyl-2,6-diazaspiro[3.4]octan-6-yl)-12-(4-fluorophenyl)-9H-benzo[e]imidazo[2,1-c] pyrrolo[1,2-a][1,4]diazepine] | < 0.05 µM
N#Cc1ccc(-c2cc3n(c2)Cc2cc(N4CCC5(CNC5)C4)ccc2-n2ncnc2-3)cc1 [Compound 256, 4-(7-(2,6-diazaspiro[3.4]octan-6-yl)-9H-benzo[e]pyrrolo[1,2-a][1,2,4]triazolo[5,1-c][1,4]diazepin-12-yl)benzonitrile] | < 0.05 µM
CC(C)[C@H](CO)NC[C@H]1CCN(c2ccc3c(c2)Cn2cc(-c4ccc(F)cc4)cc2-c2nccn2-3)C1 [Compound 358, (R)-2-((((R)-1-(12-(4-fluorophenyl)-9H-benzo[e]imidazo[2,1-c]pyrrolo[1,2-a][1,4]diazepin-7-yl)pyrrolidin-3-yl)methyl)amino)-3-methylbutan-1-ol] | < 0.05 µM
C[C@@H]1CN(c2ccc3c(c2)Cn2cc(-c4ccc(F)cc4)cc2-c2nnnn2-3)C[C@H](C)N1 [Compound 395, 7-(cis-3,5-dimethylpiperazin-1-yl)-12-(4-fluorophenyl)-9H-benzo[e]pyrrolo[1,2-a]tetrazolo[5,1-c][1,4]diazepine] | < 0.05 µM

The next lines start with the values.

IC50 | SMILES
< 0.05 µM | CC(C)[C@@H](CO)NC[C@H]1CCN(c2ccc3c(c2)Cn2cc(-c4ccc(F)cc4)cc2-c2nccn2-3)C1 [Compound 359, (S)-2-((((R)-1-(12-(4-fluorophenyl)-9H-benzo[e]imidazo[2,1-c]pyrrolo[1,2-a][1,4]diazepin-7-yl)pyrrolidin-3-yl)methyl)amino)-3-methylbutan-1-ol]
0.05 to 0.1 µM | C[C@@H]1CN(c2ccc3c(c2)Cn2cc(-c4ccc(C#N)cc4)cc2-c2nnnn2-3)C[C@H](C)N1 [Compound 242, 4-(7-(cis-3,5-dimethylpiperazin-1-yl)-9H-benzo[e]pyrrolo[1,2-a]tetrazolo[5,1-c][1,4]diazepin-12-yl)benzonitrile]
< 0.05 µM | C[C@@H]1c2cc(N3C[C@@H](CN(C)C)[C@H](O)C3)ccc2-n2ccnc2-c2cc(-c3ccc(F)cc3)cn21 [Compound 508, (3S,4R)-4-((dimethylamino)methyl)-1-((R)-12-(4-fluorophenyl)-9-methyl-9H-benzo[e]imidazo[2,1-c]pyrrolo[1,2-a][1,4]diazepin-7-yl)pyrrolidin-3-ol]
< 0.05 µM | CNC[C@H]1CN(c2ccc3c(c2)Cn2cc(-c4ccc(F)cc4)cc2-c2ncnn2-3)C[C@H]1F (relative stereo) [Compound 501, 1-(cis-4-fluoro-1-(12-(4-fluorophenyl)-9H-benzo[e]pyrrolo[1,2-a][1,2,4]triazolo[5,1-c][1,4]diazepin-7-yl)pyrrolidin-3-yl)-N-methylmethanamine]
0.05 to 0.1 µM | CN(C)C[C@H]1CCN(c2ccc3c(c2)Cn2cc(-c4ccc(F)cc4)cc2-c2ncnn2-3)C1 [Compound 414, (R)-1-(1-(12-(4-fluorophenyl)-9H-benzo[e]pyrrolo[1,2-a][1,2,4]triazolo[5,1-c][1,4]diazepin-7-yl)pyrrolidin-3-yl)-N,N-dimethylmethanamine]
< 0.05 µM | CN1CC2(CCN(c3ccc4c(c3)Cn3cc(-c5ccc(F)cc5)cc3-c3nnnn3-4)C2)C1 [Compound 392, 12-(4-fluorophenyl)-7-(2-methyl-2,6-diazaspiro[3.4]octan-6-yl)-9H-benzo[e]pyrrolo[1,2-a] tetrazolo[5,1-c][1,4]diazepine]
< 0.05 µM | CN(C)C[C@@H]1CN(c2ccc3c(n2)Cn2cc(-c4ccc(C#N)cc4)cc2-c2nccn2-3)C[C@@H]1O [Compound 299, 4-(7-((3R,4R)-3-((dimethylamino)methyl)-4-hydroxypyrrolidin-1-yl)-9H-imidazo[2,1-c]pyrido[3,2-e]pyrrolo[1,2-a][1,4]diazepin-12-yl)benzonitrile]
0.05 to 0.1 µM | Cc1nnc2n1-c1ccc(N3CC[C@H](N)C3)cc1Cn1cc(-c3ccc(C#N)cc3)cc1-2 [Compound 230, 4-(7-((S)-3-aminopyrrolidin-1-yl)-3-methyl-9H-benzo[e]pyrrolo[1,2-a][1,2,4]triazolo[3,4-c][1,4]diazepin-12-yl)benzonitrile]
